According to US11178870B2 (priority 2017, dated 2021):

What was measured:
Type in all cases: in vivo
[1] = test system: Puccinia recondita; test: Test Example E: Brown rust on wheat; conditions: Brown rust on wheat, read-out: Test E control value
[2] = test system: Magnaporthe grisea; test: whole plant or invertebrate; conditions: Pyricularia oryzae, in Oryza sativa, read-out: Test A control value
[3] = test system: Botrytis cinerea; test: Test Example B: Gray mold on tomato; conditions: Gray mold on tomato, read-out: Test B control value
[4] = test system: Phytophthora infestans; test: whole plant or invertebrate; conditions: in Solanum lycopersicum, read-out: Test F control value
[5] = test system: Blumeria graminis f. sp. hordei; test: Test Example D: Powdery mildew on barley; conditions: Powdery mildew on barley, read-out: Test D control value
[6] = test system: Plasmopara viticola; test: Test Example G: Downy mildew on vine; conditions: Downy mildew on vine, 250 ppm sprayed, 2.5 ml/pot, 7 to 10 days after inoculation, read-out: Test G control value
[7] = test system: Alternaia brassicicola; test: Test Example C: Alternaria sooty spot on cabbage; conditions: Brassica oleracea; Alternaria sooty spot on cabbage; read-out: Test C control value

SMILES | pest or weed control at 250 µg/mL [1] [%] | pest or weed control at 250 µg/mL [2] [%] | pest or weed control at 250 µg/mL [3] [%] | pest or weed control at 250 µg/mL [4] [%] | pest or weed control at 250 µg/mL [5] [%] | pest or weed control at 250 ppm [6] [%] | pest or weed control at 250 µg/mL [7] [%]
CCn1c(-c2c(F)cc(F)cc2F)c(-c2cnco2)cc(Cl)c1=O [compound 36, 3-chloro-1-ethyl-5-(oxazol-5-yl)-6-(2,4,6-trifluorophenyl)pyridin-2(1H)-one] | > 50 | > 50 | < 50 | < 50 | < 50 | < 50 | > 50
CCn1c(-c2c(F)cc(F)cc2F)c(-n2cc(Cl)cn2)cc(Cl)c1=O [compound 40, 3-chloro-5-(4-chloro-1H-pyrazol-1-yl)-1-ethyl-6-(2,4,6-trifluoro-phenyl)pyridin-2(1H)-one] | > 50 | > 50 | > 50 | < 50 | > 50 | < 50 | > 50
CCn1c(-c2c(F)cc(OC)cc2F)c(-n2cc(Cl)cn2)cc(Cl)c1=O [compound 41, 3-chloro-5-(4-chloro-1H-pyrazol-1-yl)-6-(2,6-difluoro-4-methoxyphenyl)-1-ethylpyridin-2(1H)-one] | > 50 | > 50 | > 50 | < 50 | > 50 | < 50 | > 50
CCn1c(-c2c(F)cccc2F)c(-c2ocnc2C)cc(Cl)c1=O [compound 43, 3-chloro-6-(2,6-difluorophenyl)-1-ethyl-5-(4-methyloxazol-5-yl)pyridin-2(1H)-one] | > 50 | > 50 | > 50 | < 50 | > 50 | < 50 | > 50
CCn1c(-c2c(F)cc(F)cc2F)c(-n2cc(Br)cn2)cc(Cl)c1=O [compound 70, 5-(4-bromo-1H-pyrazol-1-yl)-3-chloro-1-ethyl-6-(2,4,6-trifluorophenyl)pyridin-2(1H)-one] | > 50 | > 50 | > 50 | < 50 | > 50 | < 50 | > 50
CCn1c(-c2c(F)cc(F)cc2F)c(-n2cc(Cl)cn2)cc(Br)c1=O [compound 71, 5-(4-chloro-1H-pyrazol-1-yl)-1-ethyl-3-bromo-6-(2,4,6-trifluoro-phenyl)pyridin-2(1H)-one] | > 50 | > 50 | > 50 | < 50 | > 50 | < 50 | > 50
CCn1c(-c2c(F)cc(OC)cc2F)c(-n2cc(Br)cn2)cc(Cl)c1=O [compound 72, 5-(4-bromo-1H-pyrazol-1-yl)-3-chloro-6-(2,6-difluoro-4-methoxyphenyl)-1-ethylpyridin-2(1H)-one] | > 50 | > 50 | > 50 | < 50 | > 50 | < 50 | > 50
CCn1c(-c2c(F)cccc2F)c(-c2c[nH]cc2C#N)cc(Cl)c1=O [compound 88, 4-(5-chloro-1-ethyl-6-oxo-2-(2,6-difluorophenyl)-1,6-dihydro-pyridin-3-yl)-1H-pyrrol-3-carbonitrile] | < 50 | < 50 | < 50 | < 50 | < 50 | < 50 | > 50
CCn1c(-c2c(F)cc(F)cc2F)c(-c2ocnc2Cl)cc(Cl)c1=O [compound 112, 3-chloro-5-(4-chlorooxazol-5-yl)-1-ethyl-6-(2,4,6-trifluoro-phenyl)pyridin-2(1H)-one] | > 50 | > 50 | > 50 | < 50 | > 50 | > 50 | > 50
